# Test results from US9211264B2, “Coated drug spheroids and uses thereof for eliminating or reducing conditions such as emesis and diarrhea” (Wyeth LLC, priority 2009, dated 2015).
# Counter-ions that a name gives are not always drawn. Like-named read-outs stand apart in the source and are kept apart here.
# Tests used:
# [1] = Exposure study: neratinib pharmacokinetics with and without concurrent ketoconazole; conditions: human, in vivo, 240 mg, 240 mg neratinib
# Description: (§1) Exposure studies were performed to determine if gastrointestinal tolerability is related to systemic exposure of neratinib maleate.
# [2] = GI tolerability with and without concurrent ketoconazole (subjects reporting GI AEs); format: in vivo
# Description: as §1
# Subjects Reporting GI AEs
# [3] = Gastrointestinal adverse events in single dose clinical studies of healthy subjects; format: in vivo, human; conditions: 192 healthy subjects, five single doses
# Source text: In a clinical study, 192 healthy subjects were given five single doses of neratinib maleate. Adverse events were observed and classified as follows: • Grade 1 gastrointestinal adverse events (GI AEs) ˜25%40% • Grade 2 gastrointestinal adverse events (GI AEs) ˜15%
# Grade 1 and 2 gastrointestinal adverse events predominated as the adverse events observed in clinical studies of healthy subjects.
# [4] = Adverse events in multiple dose clinical studies of cancer patients; format: in vivo, human; conditions: cancer patients (>400), single agent and combination
# Source text: Adverse events in clinical studies of cancer patients were observed and classified as follows: • Nausea, Vomiting, Diarrhea, Dehydration, Anorexia (˜95%) • Asthenia, Fatigue (˜30-60%) • Rash (˜20-25%) • Elevated ALT, AST (<10%)
"AUC(0-t) ([1]; geometric mean in brackets, read-out: AUC t [Geo mean]) [ng·h/mL]","AUC(0-inf) ([1]; geometric mean in brackets, read-out: AUC∞ [Geo mean]) [ng·h/mL]","Cmax ([1]; geometric mean in brackets, read-out: Cmax [Geo mean]) [ng/mL]","AUC(0-t) ([1]; value outside brackets, read-out: AUC t) [ng·h/mL]","AUC(0-inf) ([1]; value outside brackets, read-out: AUC∞) [ng·h/mL]","Cmax ([1]; value outside brackets, read-out: Cmax) [ng/mL]",SMILES,Subjects Reporting GI AEs: GI Disorders ([2]; 240 mg neratinib) [%],Grade 2 gastrointestinal adverse events (GI AEs) [3] [%],"Asthenia, Fatigue [4]","Elevated ALT, AST [4] [%]","Nausea, Vomiting, Diarrhea, Dehydration, Anorexia [4] [%]",Rash [4],GI tolerability (diarrhea) relation to systemic exposure ([2]; exposure studies with concurrent ketoconazole)
727,802,51.5,835,903,55.3,"CCOc1cc2ncc(C#N)c(Nc3ccc(OCc4ccccn4)c(Cl)c3)c2cc1NC(=O)/C=C/CN(C)C [Neratinib, (E)-N-(4-(3-chloro-4-(pyridin-2-ylmethoxy)phenylamino)-3-cyano-7-ethoxyquinolin-6-yl)-4-(dimethylamino) but-2-enamide]",31.8,,,,,,
,,,,,,"CCOc1cc2ncc(C#N)c(Nc3ccc(OCc4ccccn4)c(Cl)c3)c2cc1NC(=O)/C=C/CN(C)C [neratinib maleate, (E)-N-(4-(3-chloro-4-(pyridin-2-ylmethoxy)phenylamino)-3-cyano-7-ethoxyquinolin-6-yl)-4-(dimethylamino) but-2-enamide]",,~15,30-60%,< 10,~95,20-25%,not related to systemic exposure
